# Where two headings read alike, the source gives them in different places.
# Legend:
# [1] = target: T1, human recombinant adrenergic α2A receptor (Homo sapiens, UniProt P08913); assay: Adrenergic α2A radioligand binding ([3H]MK-912)
# T1 construct: expressed in transfected cells; host or cells: insect Sf9 cells
# T1 sequence (P08913 1-465): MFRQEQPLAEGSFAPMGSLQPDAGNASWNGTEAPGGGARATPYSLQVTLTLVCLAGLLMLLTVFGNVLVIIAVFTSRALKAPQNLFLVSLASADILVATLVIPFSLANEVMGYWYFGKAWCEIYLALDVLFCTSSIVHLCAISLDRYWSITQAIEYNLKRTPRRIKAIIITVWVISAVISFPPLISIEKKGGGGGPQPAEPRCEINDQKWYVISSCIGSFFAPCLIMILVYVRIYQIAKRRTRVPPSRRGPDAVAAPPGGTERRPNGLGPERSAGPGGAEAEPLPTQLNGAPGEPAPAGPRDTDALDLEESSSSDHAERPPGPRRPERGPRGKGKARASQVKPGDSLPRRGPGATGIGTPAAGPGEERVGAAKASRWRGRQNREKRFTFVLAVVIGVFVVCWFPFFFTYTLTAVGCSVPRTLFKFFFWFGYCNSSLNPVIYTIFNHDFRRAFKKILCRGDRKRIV
# Description: To evaluate in radioligand binding assays the activity of compounds of the invention, human recombinant adrenergic α2A receptor expressed in insect Sf9 cells (Uhlen S et al. J Pharmacol Exp Ther. 271:1558, 1994) in a modified Tris-HCl buffer (50 mM Tris-HCl, pH 7.4, 12.5 mM MgCl2, 2 mM EDTA) was used. Compounds of invention were incubated with 1 nM [^3H]MK-912 for 60 minutes at 25° C. MK912 is (2S-trans)-1,3,4,5′,6,6′,7,12b-octahydro-1′,3′-dimethyl-spiro[2H-benzofuro[2,3-a]quinolizine-2,4′(1′H)-pyrimidin]-2′(3′H)-one hydrochloride Non-specific binding was estimated in the presence of 10 μM WB-4101 (2-(2,6-Dimethoxyphenoxyethyl)aminomethyl-1,4-benzodioxane hydrochloride). Receptor proteins were filtered and washed, the filters were then counted to determine [^3H]MK-912 specifically bound. Compounds were screened at 1 μM or lower, using 1% DMSO as vehicle. Biochemical assay results are presented as the percent inhibition of specific binding in Table 4.
# [2] = target: T2, human recombinant adrenergic α2B receptor (Homo sapiens, UniProt P18089); assay: Adrenergic α2B radioligand binding ([3H]Rauwolscine)
# T2 construct: expressed in transfected cells; host or cells: CHO-K1 cells
# T2 sequence (P18089 1-450): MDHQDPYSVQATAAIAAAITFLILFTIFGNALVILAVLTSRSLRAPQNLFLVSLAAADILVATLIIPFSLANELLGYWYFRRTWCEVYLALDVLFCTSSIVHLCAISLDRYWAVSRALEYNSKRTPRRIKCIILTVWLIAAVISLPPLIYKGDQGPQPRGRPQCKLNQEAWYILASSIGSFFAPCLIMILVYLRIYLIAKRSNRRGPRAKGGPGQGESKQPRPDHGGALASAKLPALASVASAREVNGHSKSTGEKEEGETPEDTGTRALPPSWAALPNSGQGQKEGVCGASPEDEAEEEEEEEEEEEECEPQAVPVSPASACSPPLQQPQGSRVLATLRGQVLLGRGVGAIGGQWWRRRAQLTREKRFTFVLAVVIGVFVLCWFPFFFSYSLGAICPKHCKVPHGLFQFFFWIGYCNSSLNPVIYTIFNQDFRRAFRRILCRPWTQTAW
# Description: To evaluate in radioligand binding assays the activity of compounds of the invention, human recombinant adrenergic α2B receptor expressed in Chinese hamster ovary (CHO-K1) cells (Uhlen S et al. Eur J. Pharmacol. 343(1):93, 1998) in a modified Tris-HCl buffer (50 mM Tris-HCl, pH 7.4, 12.5 mM MgCl2, 1 mM EDTA, 0.2% BSA) was used. Compounds of the invention were incubated with 2.5 nM [^3H]Rauwolscine for 60 minutes at 25° C. Non-specific binding was estimated in the presence of 10 μM Prozosin. Receptor proteins were filtered and washed, the filters were then counted to determine [^3H]Rauwolscine specifically bound. Compounds were screened at 1 μM or lower, using 1% DMSO as vehicle. Biochemical assay results are presented as the percent inhibition of specific binding in Table 4.
# [3] = target: T3, human recombinant dopamine D2L receptor (Homo sapiens, UniProt P14416); assay: Dopamine D2L radioligand binding ([3H]Spiperone)
# T3 construct: expressed in transfected cells; host or cells: CHO cells
# T3 sequence (P14416 whole entry): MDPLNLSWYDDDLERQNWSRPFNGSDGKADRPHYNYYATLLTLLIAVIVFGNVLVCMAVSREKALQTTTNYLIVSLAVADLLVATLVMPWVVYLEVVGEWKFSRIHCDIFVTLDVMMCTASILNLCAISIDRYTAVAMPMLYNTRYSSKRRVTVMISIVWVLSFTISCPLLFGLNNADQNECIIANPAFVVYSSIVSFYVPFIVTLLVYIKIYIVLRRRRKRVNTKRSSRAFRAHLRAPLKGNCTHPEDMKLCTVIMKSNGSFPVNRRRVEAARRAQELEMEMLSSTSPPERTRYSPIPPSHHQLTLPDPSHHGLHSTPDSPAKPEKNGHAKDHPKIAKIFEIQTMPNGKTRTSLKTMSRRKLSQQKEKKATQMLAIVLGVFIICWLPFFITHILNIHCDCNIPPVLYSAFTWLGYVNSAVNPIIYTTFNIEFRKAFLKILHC
# Procedure, shortened: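 CHO-expressed receptor in 50 mM Tris-HCl pH 7.4 with ascorbic acid, 0.001% BSA, 150 mM NaCl; 0.16 nM [3H]spiperone, 120 min at 25 °C; nonspecific binding with haloperidol.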
# [4] = 1 h, read-out: Percent Inhibition of ligand binding Adrenergic (1 μM ligand conc.) α2A
# [5] = 1 h, read-out: Percent Inhibition of ligand binding Adrenergic (1 μM ligand conc.) α2B
# [6] = 2 h, 1 μM ligand conc., read-out: Percent Inhibition of ligand binding Dopamine (1 μM ligand conc.) D2L
structure (smiles),measurement,setting,value
"Cc1ccc2c(c1)c1c(n2CCc2ccc(C(F)(F)F)nc2)CN(C)CC1 [Compound 5, 9-(2-(6-(trifluoromethyl)pyridin-3-yl)ethyl)-2,3,4,9-tetrahydro-2,6-dimethyl-1H-pyrido[3,4-b]indole]",inhibition at 1 µM,[1]; [4],74%
same,inhibition at 1 µM,[2]; [5],83%
same,inhibition at 1 µM,[3]; [6],0%
"CN1CCc2c(n(CC(=O)N3CCCCC3)c3ccc(Cl)cc23)C1 [Compound 58, 2-(6-chloro-2-methyl-3,4-dihydro-1H-pyrido[3,4-b]indol-9(2H)-yl)-1-(piperidin-1-yl)ethanone]",inhibition at 1 µM,[1]; [4],-12%
same,inhibition at 1 µM,[2]; [5],-15%
same,inhibition at 1 µM,[3]; [6],-5%
C/C(=C\n1c2c(c3cc(C)ccc31)CCN(C)C2C)c1ccccc1F (centres unmarked) [Compound 166],inhibition at 1 µM,[1]; [4],95%
same,inhibition at 1 µM,"[1]; compound concentration 1 μM, read-out: Percentage inhibition of ligand binding to Adrenergic α2A receptor",95%
same,inhibition at 1 µM,[2]; [5],106%
same,inhibition at 1 µM,"[2]; compound concentration 1 μM, read-out: Percentage inhibition of ligand binding to Adrenergic α2B receptor",106%
same,inhibition at 1 µM,[3]; [6],21%
same,inhibition at 1 µM,"[3]; compound concentration 1 μM, read-out: Percentage inhibition of ligand binding to D2L receptor",21%
same,inhibition at 3 µM,"[3]; compound concentration 3 μM, read-out: Percentage inhibition of ligand binding to D2L receptor",12%
same,inhibition at 10 µM,"[3]; compound concentration 10 μM, read-out: Percentage inhibition of ligand binding to D2L receptor",50%
"Cc1ccc2c(c1)c1c(n2CCc2ccc(C)nc2)CN(C)CC1 [Compound 1, 2,3,4,9-tetrahydro-2,6-dimethyl-9-(2-(6-methylpyridin-3-yl)ethyl)-1H-pyrido[3,4-b]indole]",inhibition at 1 µM,[1]; [4],74%
same,inhibition at 1 µM,[2]; [5],99%
same,inhibition at 1 µM,[3]; [6],6%
"CN1CCc2c(n(CCCC(=O)N3CCCCC3)c3ccc(Cl)cc23)C1 [Compound 44, 4-(6-chloro-1,2,3,4-tetrahydro-2-methylpyrido[3,4-b]indol-9-yl)-1-(piperidin-1-yl)butan-1-one]",inhibition at 1 µM,[1]; [4],77%
same,inhibition at 1 µM,[2]; [5],20%
same,inhibition at 1 µM,[3]; [6],8%
COc1ccc(C(O)Cn2c3c(c4cc(C)ccc42)CCN(C)C3)cc1OC (centres unmarked) [Compound 66],inhibition at 1 µM,[1]; [4],55%
same,inhibition at 1 µM,[2]; [5],74%
same,inhibition at 1 µM,[3]; [6],9%
Cc1ccc2c(c1)c1c(n2C(=O)Cc2ccc(Cl)cc2)C(c2ccccc2)N(C)CC1 (centres unmarked) [Compound 163],inhibition at 1 µM,[1]; [4],96%
same,inhibition at 1 µM,[2]; [5],37%
same,inhibition at 1 µM,[3]; [6],-12%
"Cc1ccc2c(c1)c1c(n2CCC2CCCCC2)CN(C)CC1 [Compound 2, 9-(2-cyclohexylethyl)-2,3,4,9-tetrahydro-2,6-dimethyl-1H-pyrido[3,4-b]indole]",inhibition at 1 µM,[1]; [4],81%
same,inhibition at 1 µM,[2]; [5],81%
same,inhibition at 1 µM,[3]; [6],-7%
"Cc1ccc(CCCn2c3c(c4cc(Cl)ccc42)CCN(C)C3)cn1 [Compound 56, 6-chloro-2-methyl-9-(3-(6-methylpyridin-3-yl)propyl)-2,3,4,9-tetrahydro-1H-pyrido[3,4-b]indole]",inhibition at 1 µM,[1]; [4],7%
same,inhibition at 1 µM,[2]; [5],-10%
same,inhibition at 1 µM,[3]; [6],9%
"Cc1ccc2c(c1)c1c(n2CC(O)c2ccccc2F)CN(C)CC1 (centres unmarked) [Compound 60, 2-(2,6-dimethyl-3,4-dihydro-1H-pyrido[3,4-b]indol-9(2H)-yl)-1-(2-fluorophenyl)ethanol]",inhibition at 1 µM,[1]; [4],79%
same,inhibition at 1 µM,[2]; [5],-5%
same,inhibition at 1 µM,[3]; [6],18%
"COC(=O)Cn1c2c(c3cc(C)ccc31)CCN(C)C2 [Compound 21, methyl 2-(1,2,3,4-tetrahydro-2,6-dimethylpyrido[3,4-b]indol-9-yl)acetate]",inhibition at 1 µM,[1]; [4],0%
same,inhibition at 1 µM,[2]; [5],11%
same,inhibition at 1 µM,[3]; [6],-1%
"CN1CCc2c(n(CC(=O)N(C)C)c3ccc(Cl)cc23)C1 [Compound 16, 2-(6-chloro-1,2,3,4-tetrahydro-2-methylpyrido[3,4-b]indol-9-yl)-N,N-dimethylacetamide]",inhibition at 1 µM,[1]; [4],-4%
same,inhibition at 1 µM,[2]; [5],-7%
same,inhibition at 1 µM,[3]; [6],-7%

# — US9260429B2, “Pyrido[3,4-B]indoles and methods of use” (Medivation Technologies, Inc., priority 2008, dated 2016)
